Measured values taken from patent US12098352B2, “Stem cell-based lung-on-chip models” (EMULATE, INC., priority 2018, dated 2024).
Entries after “also recorded” stand apart in the source; their conditions may differ.

Tests used:
[1] = system: Alveolus-Chip epithelium/endothelium barrier; test: Barrier function assay (fluorescent dextran / Lucifer Yellow leakage) in Open-Top Alveolus-Chip; format: cell-based, human; conditions: for reversibility of barrier breakdown after removal of stressor: additional 2 days in fresh medium; for preventive effect on barrier leakage: co-administered with H2O2 (10 mM), 50 nM Bardoxolone, 0.01-1.0 μM GSK, 2 μM JQ1
Description: We studied interaction between different chip compartments by perturbating the system with biological and chemical stressors such as LPS, and H2O2 which are known to induce a reversible disruption of the cellular monolayer after acute administration both in vivo and in vitro. […] The presence of a strong barrier is indirectly confirmed by the presence of continuous pattern of E-cad and VE-cad in the monolayer of Alveolar epithelial and endothelial cell, respectively.
(§1) Given the limited availability of in vitro models that can closely mimic human alveolar epithelium function and/or its disease states, we explored whether a microfluidic Alveolus-Chip lined with the primary alveolar epithelial cells on an artificial lung stroma with embedded primary lung fibroblasts and pulmonary microvascular endothelial cells would model a lung injury state. To test this, we exposed the Alveolus-Chips to an acute damage generated by exposure to H2O2 under continuous infusion through the epithelium top channel, similarly to as it is […] administered in mice.
Air-Liquid interface was replaced by phenol red free MEM (GIBCO: 51200-038) and medium in the bottom fluidical spiraled channel substituted by one containing 1 mg/ml Lucifer Yellow CH, Lithium Salt (ThermoFisher: L453) or 0.1 mg/ml Dextran, Fluorescein, 3000 MW, Anionic, Lysine Fixable (ThermoFisher: D3306). Leakage of the fluorescent probe from the lumen of the spiraled channel to the epithelial compartment was collected from the outlet reservoirs after indicated hours of perfusion. The fluorescence intensity was measured with a 96-well fluorimeter at excitation/emission indicated by the manufacturer.

[2] = system: alpha smooth muscle Actin (alpha-SMA); test: TGF-β treatment of open top Alveolar-Chip (EMT markers, immunostaining / qRT-PCR); format: cell-based, human; conditions: TGF-β up to 72 hours, versus vehicle
Description: E-cadherin is shown in pink.

[3] = system: cellular monolayer barrier; test: Barrier function in static transwell; format: cell-based; conditions: doses up to 100 ng/ml LPS, 10 mM H2O2
IL-6, IL-8 and MCP-1 = test: Cytokine secretion in chip medium effluent (ELISA); format: cell-based, human; conditions: 24 hours of exposure
Description: We studied interaction between different chip compartments by perturbating the system with biological and chemical stressors such as LPS, and H2O2 which are known to induce a reversible disruption of the cellular monolayer after acute administration both in vivo and in vitro. […] To assess changes in the barrier function following the exposure to these insults, we added a fluorescent dye (e.g. […]—Dextran-FITC) to the endothelial compartment, which is under control condition confirmed that the endothelium and epithelium form a barrier to the dies. The presence of a strong barrier is also indirectly confirmed by the presence of continuous pattern of E-cad and VE-cad in the monolayer of Alveolar epithelial and endothelial cell, respectively. […] We also decoupled the effect of single biological component to the inflammatory response by selectively removing them from the system in an integrated matrix. […] In fact, the recorded value of IL-6 and IL-8 is not the algebraic sum of the concentration of the factors released by the single cellular components. […]
The amount of Surfactant B and C was collected from chip epithelial cell surface by PBS washing and measured by Human SFTPB/Surfactant Protein B ELISA Kit (Sandwich ELISA)—LS-F4439 and Human SFTPC/Surfactant Protein C ELISA Kit (Sandwich ELISA)—LS-F12438 (LifeSpanBioScience) following the manufacturer's protocol. The color reaction was measured at 450 nm with a photometer (specification). […] Similarly, the presence of IL-6, IL-8 and MPC in medium samples was detected by Human TLR-induced Cytokines II: Microbial-induced Multi-Analyte ELISArray Kit (MEH-008A) (Qiogen) following the manufacturer's protocol. The color reaction was measured at 450 nm with a photometer (specification). […]

E-Cadherin = E-Cadherin / phalloidin imaging of Alveolus-Chip epithelium after H2O2; format: cell-based, human
Procedure: In one embodiment, a method is used for testing the effects of activating the Nrf2 system on pathological cell responses using an activating treatment, such as H2O2; LPS, etc. […] Control left panel, H2O2 (10 mM) (48 h) treatment, right panel. E-cadherin (green) actin (pink) and nuclei blue.
as §1
Open-Top Organ-Chips were fixed in 10% neutral buffered formalin. Endothelial cells were stained inside the chip by performinutesg the immunofluorescence steps described below directly inside the microfluidic channel. Stroma equivalents were stained as described by the step below inside the chip or alternatively extracted from the chip and processed for immunohistochemistry analysis. […]

[4] = system: human airway epithelium on-chip; conditions: cited from earlier work

TGF-β: transforming growth factor beta1, cytokine inducing epithelial to mesenchymal transition
reversibility of barrier breakdown after removal of stressor [1]: barrier breakdown in our chip was reversable
ICAM-1 staining [2]: lack of ICAM-1
alpha-SMA induction [2]: induction of alpha smooth muscle Actin (alpha-SMA)

Cc1sc2c(c1C)C(c1ccc(Cl)cc1)=N[C@@H](CC(=O)OC(C)(C)C)c1nnc(C)n1-2 [JQ1, thienotriazolodiazepine]
preventive effect on barrier leakage [1]: significant preventive effect on the barrier leakage

OO [H2O2]
effect of stressor on barrier function ([1]; LPS 10 ng/ml and/or H2O2 10 mM): causes barrier breakdown and disruption of intracellular junction; also recorded: significant loss of barrier function
reversibility of barrier breakdown after removal of stressor [1]: barrier breakdown in our chip was reversable
loss of barrier function [3]: dose dependent loss of barrier function
release of IL-6, IL-8 and MCP-1 in medium effluent (IL-6, IL-8 and MCP-1): no apparent correlation
E-Cadherin distribution (E-Cadherin; H2O2 10 mM, 48 h): induces redistribution of E-Cadherin; also recorded: pronounced loss and re-distribution of E-Cadherin
pneumocyte monolayer integrity (microscopy) (E-Cadherin; H2O2 continuous infusion through epithelium top channel): disruption of the pneumocyte monolayer with partial cell detachment

IL-13: cytokine perfused to mimic a Th2 enriched microenvironment
airway phenotype on IL-13 perfusion through the vascular channel [4]: significant airway remodeling with goblet cells hyperplasia

C[C@@H]1CCN(C(=O)CC#N)C[C@@H]1N(C)c1ncnc2[nH]ccc12 [Tofacitinib]
effect on IL-13 induced phenotype [4]: suppressed

CC1(C)CC[C@]2(C(=O)O)CC[C@]3(C)[C@H](C(=O)C=C4[C@@]5(C)C=C(C#N)C(=O)C(C)(C)[C@@H]5CC[C@]43C)[C@@H]2C1 [Bardoxolone, Bardoxolone (methyl)]
preventive effect on barrier leakage [1]: significant preventive effect on the barrier leakage
